Key:
TZM-bl cells = conditions: cited from earlier work
U87-CD4-CXCR4 cells = conditions: cells of VSV-G assay; cited from earlier work
Cytotoxicity [1] = type: cell-based; conditions: human, U87-CD4-CXCR4 cells
VSV-G pseudovirus = assay: microbe, parasite or virus in culture; type: cell-based
Cytotoxicity [2] = type: cell-based; conditions: human, TZM-bl cells
[3] = Solubility of compounds for antiviral/cytotoxicity testing; type: physicochemical; conditions: assays could not be performed
TZM-bl/H9-HIV-1IIIB = assay: Cell-to-Cell HIV-1 transmission, CXCR4-tropic assay; type: cell-based; conditions: Human immunodeficiency virus 1, TZM-bl
TZM-bl/Molt-HIV-1ADA = assay: Cell-to-Cell HIV-1 transmission, CCR5-tropic assay; type: cell-based; conditions: Human immunodeficiency virus 1, TZM-bl

For NC[C@@H](NC(=O)c1ccc(-c2ccc(C(F)(F)F)cc2)[nH]1)c1ncc(CO)s1 [NBD-14136], the CC50 (TZM-bl cells) is listed as 42.4 ± 1 µM and the CC50 (U87-CD4-CXCR4 cells) is listed as 46.3 ± 10.6 µM.
For NC[C@H](NC(=O)c1ccc(-c2ccc(C(F)(F)F)cc2F)[nH]1)c1nc(CCO)cs1 [Compound 13, N-(2-Amino-1-(4-(2-hydroxyethyl)thiazol-2-yl)ethyl)-5-(2-fluoro-4-(trifluoromethyl)phenyl)-1H-pyrrole-2-carboxamide], the CC50 at 3 days (Cytotoxicity [1]) was 33.5 ± 0.6 µM and the IC50 (VSV-G pseudovirus) was 11.9 ± 0.5 µM.
NC[C@H](NC(=O)c1ccc(-c2cc(F)c(Cl)c(F)c2)[nH]1)c1nc(CCO)cs1 [Compound 9, N-(2-Amino-1-(4-(2-hydroxyethyl)thiazol-2-yl)ethyl)-5-(4-chloro-3,5-difluorophenyl)-1H-pyrrole-2-carboxamide] showed a CC50 at 72 h (Cytotoxicity [2]) of 32.8 ± 1 µM.
In the case of NC[C@@H](NC(=O)c1ccc(-c2ccc(C(F)(F)F)c(F)c2)[nH]1)c1nc(C(=O)O)cs1 [Compound 22, 2-[2-Amino-1-[[5-[3-fluoro-4-(trifluoromethyl)phenyl]-1H-pyrrole-2-carbonyl]amino]ethyl]thiazole-4-carboxylic acid], the “Solubility” value [3] is reported as “Not soluble”.
With NC[C@H](NC(=O)c1ccc(-c2ccc(C(F)(F)F)c(F)c2)[nH]1)c1nc(C(=O)O)cs1 [Compound 21, 2-[2-Amino-1-[[5-[3-fluoro-4-(trifluoromethyl)phenyl]-1H-pyrrole-2-carbonyl]amino]ethyl]thiazole-4-carboxylic acid] the “Solubility” value [3] was “Not soluble”.
In the case of N#Cc1ccc(-c2ccc(C(=O)N[C@@H](CN)c3nc(CO)cs3)[nH]2)cc1 [Compound 4, N-(2-Amino-1-(4-(hydroxymethyl)thiazol-2-yl)ethyl)-5-(4-cyanophenyl)-1H-pyrrole-2-carboxamide], the CC50 at 3 days (Cytotoxicity [2]) is reported as > 82 µM.
With COc1cnc(-n2cnc(C)n2)c2[nH]cc(C(=O)C(=O)N3CCN(C(=O)c4ccccc4)CC3)c12 [BMS-626529] the IC50 (TZM-bl/H9-HIV-1IIIB) was 0.02 ± 0.005 µM and the IC50 (TZM-bl/Molt-HIV-1ADA) was ~0.2 µM.
